The subject of one data set is blood lymphocytes. Nature of the data set: Zinc dose response: lymphocyte response to mitogen PHA (thymidine uptake, 72 h culture). Format: in vivo, human. As to conditions: for Lymphocyte response to PHA (stimulation index): adults, age 20-50 years. The procedure: The basic concept underlying the assessment of the most optimum nutrient amounts for a given age group uses the principle of “dose-response graphs”. At least four groups of individuals were provided with various amounts of a given nutrient and their immune responses were measured using established and accepted techniques. The amount of a nutrient that gave the best response was considered the optimum amount. Dose response graphs were determined for all vitamins and trace elements considered essential for human health, particularly immunity.
Data for the dose response chart for zinc in a group of 20 to 50 year old adults is shown in FIG. 1, with the total amount of zinc taken is shown for each group. To determine the magnitude of immune response, an aliquot of blood was withdrawn from each subject in the study, blood lymphocytes were separated, washed and mixed with the mitogen phytohemagglutinin (PHA) in previously determined optimum amount. The optimum amount of PHA used in the experiments was predetermined by a set of dose response graphs using lymphocytes of a healthy donor and four different concentrations of PHA. After culture in a sterile environment for 72 hours, the cells were washed and mixed with radioactive thymidine. The same steps were undertaken in a control sample in which only the culture medium was used, not PHA. The cells were washed and radioactivity determined.
Dietary intake of zinc was calculated based on three 24-hour recalls and by the food frequency questionnaire methods.

For data set [1] the following is noted: in vivo; cited from earlier work.

The values below come from US20050281889A1, “Nutritional supplement for adults” (priority 2004, published 2005).

With `[Zn]` [zinc], in the data set with blood lymphocytes (12 mg of zinc intake, in combination with zinc from a balanced diet), the immune response entry is “best immune response”. The entries for the “Lymphocyte response to PHA (stimulation index)” value in the data set with blood lymphocytes (supplemental zinc 12 mg), with blood lymphocytes (supplemental zinc 25 mg) and in the data set with blood lymphocytes (supplemental zinc 50 mg) were 78, 48 and 41, respectively.

Regarding `Cc1ncc(C[n+]2csc(CCO)c2C)c(N)n1` [Thiamin], the “biologic half-life in the body” value in data set [1] is on record as “about 15 days”.
